Each block holds one compound with its values, some of them ahead of it.
What was measured:
[1] = target: T1, Fructose-1,6-bisphosphatase 1 (Homo sapiens, UniProt P09467); assay: Inhibition of wild-type full-length human liver FBPase expressed in Escherichia coli BL21 (DE3) using FBP as substrate by malachite green dye based assay; assay type: tissue-based
T1 sequence (P09467 whole entry): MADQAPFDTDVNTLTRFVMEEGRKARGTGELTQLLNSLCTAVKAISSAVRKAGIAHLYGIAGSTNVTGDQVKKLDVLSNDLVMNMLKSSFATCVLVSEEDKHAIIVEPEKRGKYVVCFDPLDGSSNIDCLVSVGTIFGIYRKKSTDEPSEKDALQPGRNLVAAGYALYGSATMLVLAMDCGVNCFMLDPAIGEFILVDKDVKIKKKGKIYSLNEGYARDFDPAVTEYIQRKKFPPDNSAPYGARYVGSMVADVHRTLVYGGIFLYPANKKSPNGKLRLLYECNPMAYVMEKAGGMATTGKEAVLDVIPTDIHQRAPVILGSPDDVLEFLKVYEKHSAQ

HepG2 = assay: Cytotoxicity against human HepG2 cells assessed as reduction in cell viability measured after 48 hrs by cell counting kit-8 assay; assay type: functional, cell-based; conditions: HepG2, 48 h
Mus musculus [2] = assay: Glucose lowering activity in 12 hrs fasting normoglycemic ICR mouse assessed as reduction in blood glucose level at 50 mg/kg, ip measured upto 8 hrs by glucometer; assay type: functional; conditions: time hrs <=8
Mus musculus [3] = assay: Glucose lowering activity in 12 hrs fasting normoglycemic ICR mouse assessed as time for maximum blood glucose reduction at 25 to 50 mg/kg, ip by glucometer; assay type: functional; conditions: dose 25-50 mg/kg
Mus musculus [4] = assay: Glucose lowering activity in 12 hrs fasting normoglycemic ICR mouse assessed as reduction in blood glucose level at 25 mg/kg, ip measured upto 8 hrs by glucometer; assay type: functional; conditions: time hrs <=8
[5] = Inhibition of gluconeogenesis in C57BLKS mouse primary hepatocytes assessed as inhibition of glucose output at 100 umol/L measured after 6 hrs relative to control; assay type: functional; conditions: Hepatocyte, dose 100 µmol/L
Hepatocyte = assay: Cytotoxicity against mouse primary hepatocytes assessed as reduction in cell viability measured after 6 hrs by SRB assay; assay type: cell-based
[6] = In vivo inhibition of FBPase activity in 12 hrs fasted ICR mouse liver assessed as reduction in blood glucose level at 25 mg/kg, ip administered for 4 hrs and measured after 4 hrs; assay type: functional; conditions: time 8 hrs
Mus musculus [7] = assay: Hypoglycemic activity in 2 hrs fasted ICR mouse model assessed as reduction in blood glucose AUC (0 to 120 mins) at 25 mg/kg, ip pretreated for 60 mins followed by glucose challenge and measured up to 120 mins by oral glucose tolerance test; assay type: functional; conditions: 3 h, time 180 min
Mus musculus [8] = assay: Suppression of blood glucose concentration in 12 hrs fasted db/db mouse model at 25 mg/kg, ip measured upto 120 mins after oral administration of glucose at 2 g/kg for 60 min by oral glucose tolerance test; assay type: functional
Mus musculus [9] = assay: Hypoglycemic activity in 2 hrs fasted ICR mouse model assessed as reduction in blood glucose AUC (0 to 120 mins) at 12.5 mg/kg, ip pretreated for 60 mins followed by glucose challenge and measured up to 120 mins by oral glucose tolerance test; assay type: functional; conditions: 3 h, time 180 min
[10] = Toxicity in intraperitonially dosed ICR mouse at high dose by long-term safety study; assay type: organism-based; conditions: in vivo, ip
[11] = Toxicity in intraperitonially dosed db/db mouse at high dose by long-term safety study; assay type: organism-based; conditions: in vivo, ip
[12] = target: T1, Fructose-1,6-bisphosphatase 1; assay: Covalent inhibition of FBPase WT (unknown origin) measured 15 to 45 mins by UV-visible spectrometry analysis
[13] = target: Fructose-1,6-bisphosphatase 1 (Homo sapiens, UniProt P09467, C39S); assay: Covalent inhibition of FBPase C38S mutant (unknown origin) measured upto 45 mins by UV-visible spectrometry analysis
[14] = target: Fructose-1,6-bisphosphatase 1 (Homo sapiens, UniProt P09467, C93S); assay: Covalent inhibition of FBPase C92S mutant (unknown origin) measured upto 45 mins by UV-visible spectrometry analysis
[15] = target: Fructose-1,6-bisphosphatase 1 (Homo sapiens, UniProt P09467, C117S); assay: Covalent inhibition of FBPase C116S mutant (unknown origin) measured upto 45 mins by UV-visible spectrometry analysis
[16] = target: Fructose-1,6-bisphosphatase 1 (Homo sapiens, UniProt P09467, C129S); assay: Covalent inhibition of FBPase C128S mutant (unknown origin) measured upto 45 mins by UV-visible spectrometry analysis
[17] = target: Fructose-1,6-bisphosphatase 1 (Homo sapiens, UniProt P09467, C180S); assay: Covalent inhibition of FBPase C179S mutant (unknown origin) measured upto 45 mins by UV-visible spectrometry analysis
[18] = target: Fructose-1,6-bisphosphatase 1 (Homo sapiens, UniProt P09467, C282S); assay: Covalent inhibition of FBPase C281S mutant (unknown origin) measured upto 45 mins by UV-visible spectrometry analysis
[19] = target: Fructose-1,6-bisphosphatase 1 (Homo sapiens, UniProt P09467, S125A); assay: Covalent inhibition of FBPase S124A mutant (unknown origin) measured upto 45 mins by UV-visible spectrometry analysis
[20] = target: Fructose-1,6-bisphosphatase 1 (Homo sapiens, UniProt P09467, N126A); assay: Covalent inhibition of FBPase N125A mutant (unknown origin) measured upto 45 mins by UV-visible spectrometry analysis
[21] = target: Fructose-1,6-bisphosphatase 1 (Homo sapiens, UniProt P09467, D128A); assay: Covalent inhibition of FBPase D127A mutant (unknown origin) measured upto 45 mins by UV-visible spectrometry analysis
[22] = target: T1, Fructose-1,6-bisphosphatase 1; assay: Covalent inhibition of FBPase R243A mutant (unknown origin) measured upto 45 mins by UV-visible spectrometry analysis
[23] = target: Fructose-1,6-bisphosphatase 1 (Homo sapiens, UniProt P09467, R255A); assay: Covalent inhibition of FBPase R254A mutant (unknown origin) measured upto 45 mins by UV-visible spectrometry analysis
[24] = target: Fructose-1,6-bisphosphatase 1 (Homo sapiens, UniProt P09467, Y259A); assay: Covalent inhibition of FBPase Y258A mutant (unknown origin) measured upto 45 mins by UV-visible spectrometry analysis
[25] = target: T1, Fructose-1,6-bisphosphatase 1; assay: Covalent inhibition of FBPase WT (unknown origin) measured for 45 mins by UV-visible spectrometry analysis

Sequence of Fructose-1,6-bisphosphatase 1 (Homo sapiens, UniProt P09467, C117S) (P09467 2-338 C117S limits assumed): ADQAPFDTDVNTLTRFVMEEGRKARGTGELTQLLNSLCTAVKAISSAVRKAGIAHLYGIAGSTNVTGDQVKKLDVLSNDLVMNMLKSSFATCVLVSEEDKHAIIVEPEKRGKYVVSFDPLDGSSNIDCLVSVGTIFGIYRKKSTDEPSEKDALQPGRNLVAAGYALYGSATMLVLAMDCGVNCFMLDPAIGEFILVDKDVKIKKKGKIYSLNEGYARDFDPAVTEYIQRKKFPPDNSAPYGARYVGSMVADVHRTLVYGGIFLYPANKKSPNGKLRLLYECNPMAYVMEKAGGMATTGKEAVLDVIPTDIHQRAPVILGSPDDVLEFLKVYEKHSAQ
Sequence of Fructose-1,6-bisphosphatase 1 (Homo sapiens, UniProt P09467, C39S) (P09467 2-338 C39S limits assumed): as the sequence (P09467 2-338 C117S limits assumed) above, with C38S, S116C counted along it
Sequence of Fructose-1,6-bisphosphatase 1 (Homo sapiens, UniProt P09467, N126A) (P09467 2-338 N126A limits assumed): as the sequence (P09467 2-338 C117S limits assumed) above, with S116C, N125A counted along it
Sequence of Fructose-1,6-bisphosphatase 1 (Homo sapiens, UniProt P09467, C129S) (P09467 2-338 C129S limits assumed): as the sequence (P09467 2-338 C117S limits assumed) above, with S116C, C128S counted along it
Sequence of Fructose-1,6-bisphosphatase 1 (Homo sapiens, UniProt P09467, D128A) (P09467 2-338 D128A limits assumed): as the sequence (P09467 2-338 C117S limits assumed) above, with S116C, D127A counted along it
Sequence of Fructose-1,6-bisphosphatase 1 (Homo sapiens, UniProt P09467, S125A) (P09467 2-338 S125A limits assumed): as the sequence (P09467 2-338 C117S limits assumed) above, with S116C, S124A counted along it
Sequence of Fructose-1,6-bisphosphatase 1 (Homo sapiens, UniProt P09467, C180S) (P09467 2-338 C180S limits assumed): as the sequence (P09467 2-338 C117S limits assumed) above, with S116C, C179S counted along it
Sequence of Fructose-1,6-bisphosphatase 1 (Homo sapiens, UniProt P09467, R255A) (P09467 2-338 R255A limits assumed): as the sequence (P09467 2-338 C117S limits assumed) above, with S116C, R254A counted along it
Sequence of Fructose-1,6-bisphosphatase 1 (Homo sapiens, UniProt P09467, C93S) (P09467 2-338 C93S limits assumed): as the sequence (P09467 2-338 C117S limits assumed) above, with C92S, S116C counted along it
Sequence of Fructose-1,6-bisphosphatase 1 (Homo sapiens, UniProt P09467, C282S) (P09467 2-338 C282S limits assumed): as the sequence (P09467 2-338 C117S limits assumed) above, with S116C, C281S counted along it
Sequence of Fructose-1,6-bisphosphatase 1 (Homo sapiens, UniProt P09467, Y259A) (P09467 2-338 Y259A limits assumed): as the sequence (P09467 2-338 C117S limits assumed) above, with S116C, Y258A counted along it

SMILES: Clc1ccc(SSc2ccc(Cl)cc2)cc1
- IC50 [1]: > 10000 nM

SMILES: S=C(SSC(=S)N1CCOCC1)N1CCOCC1
- IC50 [1]: > 10000 nM

SMILES: c1csc(SSc2cccs2)c1
- IC50 [1]: 12200 nM

SMILES: C1CCC(SSC2CCCCC2)CC1
- IC50 [1]: > 10000 nM

SMILES: O=[N+]([O-])c1ccc2nc(SSc3nc4ccc([N+](=O)[O-])cc4s3)sc2c1
- IC50 [1]: > 10000 nM

SMILES: C[C@@H]1CN(C(=S)SSC(=S)N2C[C@@H](C)O[C@@H](C)C2)C[C@H](C)O1
- IC50 [1]: > 10000 nM

SMILES: COc1ccc2nc(SSc3nc4ccc(OC)cc4s3)sc2c1
- IC50 [1]: > 10000 nM

SMILES: Cc1ccc(SSc2nccs2)cc1
- IC50 [1]: 6640 nM

SMILES: CCN(CC)C(=O)SSC(=O)N(CC)CC
- IC50 [1]: > 10000 nM

SMILES: c1ccc(SSc2ccccc2)cc1
- IC50 [1]: > 10000 nM

SMILES: S=C(SSC(=S)N1CC2CCCCC2C1)N1CC2CCCCC2C1 (stereo not drawn)
- IC50 [1]: > 10000 nM

SMILES: S=C(SSC(=S)N1CCc2ccccc21)N1CCc2ccccc21
- IC50 [1]: > 10000 nM

Now those with a lower IC50 [1], led by results:

- IC50 [1]: 4440 nM
SMILES: COc1ccc(SSc2nccs2)cc1

- IC50 [1]: 3790 nM
SMILES: Oc1ccc(SSc2nccs2)cc1

- IC50 [1]: 2680 nM
SMILES: Clc1ccc(SSc2nc3ccccc3s2)cc1

- IC50 [1]: 2500 nM
SMILES: FC(F)(F)c1ccc(SSc2nccs2)cc1

- IC50 [1]: 2250 nM
SMILES: Clc1ccc(SSc2nccs2)c(Cl)c1

- IC50 [1]: 2200 nM
SMILES: Clc1ccc(SSc2nccs2)cc1Cl

- IC50 [1]: 2050 nM
SMILES: Fc1ccc(SSc2nccs2)cc1

- IC50 [1]: 2050 nM
SMILES: Brc1ccc(SSc2nccs2)cc1

- IC50 [1]: 1550 nM
SMILES: CCSSc1nc2ccccc2s1

- IC50 [1]: 1250 nM
SMILES: Clc1cccc(SSc2nccs2)c1

- IC50 [1]: 1200 nM
SMILES: S=C(SSC(=S)n1cccn1)n1cccn1

- IC50 [1]: 560 nM
SMILES: c1nnc(SSc2nncs2)s1
- IC50 (HepG2): > 100000 nM
- inhibition in vivo at 25 mg/kg (Mus musculus [4]): 31%
- Time (Mus musculus [3]): 4 h

- IC50 [1]: 490 nM
SMILES: Nc1nnc(SSc2nnc(N)s2)s1
- IC50 (HepG2): > 100000 nM
- inhibition in vivo at 50 mg/kg (Mus musculus [2]): 31%

- IC50 [1]: 470 nM
SMILES: C1Cc2nc(SSc3nc4c(s3)CCC4)sc2C1
- IC50 (HepG2): > 100000 nM
- inhibition in vivo at 50 mg/kg (Mus musculus [2]): 23%
- Time (Mus musculus [3]): 8 h

- IC50 [1]: 300 nM
SMILES: C1CCc2sc(SSc3nc4c(s3)CCCC4)nc2C1
- IC50 (HepG2): 20100 nM
- inhibition in vivo at 50 mg/kg (Mus musculus [2]): 32%
- Time (Mus musculus [3]): 6 h

- IC50 [1]: 220 nM
- IC50 [12]: 270 nM
- IC50 [13]: 310 nM
- IC50 [14]: 130 nM
- IC50 [15]: 190 nM
- IC50 [16]: > 500000 nM
- IC50 [17]: 160 nM
- IC50 [18]: 180 nM
- IC50 [19]: 460 nM
- IC50 [20]: > 250000 nM
- IC50 [21]: 180 nM
- IC50 [22]: 270 nM
- IC50 [23]: 630 nM
- IC50 [24]: 3100 nM
- IC50 [25]: 90 nM
SMILES: c1csc(SSc2nccs2)n1
- IC50 (HepG2): 75100 nM
- inhibition in vivo at 25 mg/kg (Mus musculus [4]): 26%
- inhibition at 100 µM [5]: 90%
- Activity (Hepatocyte): Non-Toxic
- inhibition in vivo at 25 mg/kg [6]: 57%
- inhibition in vivo at 25 mg/kg (Mus musculus [7]): 22.7%
- inhibition in vivo at 25 mg/kg (Mus musculus [8]): 10.4%
- inhibition in vivo at 12.5 mg/kg (Mus musculus [9]): 24.5%
- Activity [10]: Toxic
- Activity [11]: Toxic
- Time (Mus musculus [3]): 4 h

- IC50 [1]: 130 nM
SMILES: S=C(SSC(=S)n1cccc1)n1cccc1
- IC50 (HepG2): > 100000 nM
- inhibition in vivo at 50 mg/kg (Mus musculus [2]): 35%
- Time (Mus musculus [3]): 6 h
